Source: ChEMBL document CHEMBL1201861, “Genomics of Drug Sensitity in Cancer screening data, Wellcome Trust Sanger Institute”

Assays:
MHH-ES-1 = experiment: cells; type: functional, cell-based; details: Homo sapiens
Description: SANGER: Inhibition of human MHH-ES-1 cell growth in a cell viability assay.

HOS = experiment: cells; type: functional, cell-based; details: Homo sapiens;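 also: growth inhibition of human HOS cells, read out with a cell viability assay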
Description: SANGER: Inhibition of human HOS cell growth in a cell viability assay.

GAMG = experiment: cells; type: functional, cell-based; details: Homo sapiens;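 also: cell growth inhibition measured by a viability assay in the GAMG human cell line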
Description: SANGER: Inhibition of human GAMG cell growth in a cell viability assay.

HCC1937 = experiment: cells; type: functional, cell-based; details: Homo sapiens;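 also: growth inhibition measured with a cell viability read-out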
Description: SANGER: Inhibition of human HCC1937 cell growth in a cell viability assay.

VM-CUB-1 = experiment: cells; type: functional, cell-based; details: Homo sapiens;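 also: cell viability assay measuring growth inhibition of the human VM-CUB-1 cell line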
Description: SANGER: Inhibition of human VM-CUB-1 cell growth in a cell viability assay.

HN = experiment: cells; type: functional, cell-based; details: Homo sapiens
Description: SANGER: Inhibition of human HN cell growth in a cell viability assay.

NCI-H2081 = experiment: cells; type: functional, cell-based; details: Homo sapiens;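 also: growth inhibition of human NCI-H2081 cells, read out with a cell viability assay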
Description: SANGER: Inhibition of human NCI-H2081 cell growth in a cell viability assay.

Raji = experiment: cells; type: functional, cell-based; details: Homo sapiens;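 also: cell viability assay measuring inhibition of Raji cell growth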
Description: SANGER: Inhibition of human Raji cell growth in a cell viability assay.

SW756 = experiment: cells; type: functional, cell-based; details: Homo sapiens;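 also: growth inhibition of human SW756 cells, read out with a cell viability assay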
Description: SANGER: Inhibition of human SW756 cell growth in a cell viability assay.

CAL-148 = experiment: cells; type: functional, cell-based; details: Homo sapiens
Description: SANGER: Inhibition of human CAL-148 cell growth in a cell viability assay.

NCI-H719 = experiment: cells; type: functional, cell-based; details: Homo sapiens;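 also: growth inhibition of the cultured cell line, read out with a viability assay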
Description: SANGER: Inhibition of human NCI-H719 cell growth in a cell viability assay.

MDA-MB-453 = experiment: cells; type: functional, cell-based; details: Homo sapiens
Description: SANGER: Inhibition of human MDA-MB-453 cell growth in a cell viability assay.

EB2 = experiment: cells; type: functional, cell-based; details: Homo sapiens;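 also: growth inhibition of EB2 cells, read out with a cell viability assay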
Description: SANGER: Inhibition of human EB2 cell growth in a cell viability assay.

NCI-H727 = experiment: cells; type: functional, cell-based; details: Homo sapiens;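 also: growth inhibition of human NCI-H727 cells, read out with a cell viability assay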
Description: SANGER: Inhibition of human NCI-H727 cell growth in a cell viability assay.

A673 = experiment: cells; type: functional, cell-based; details: Homo sapiens;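 also: growth inhibition of human A673 cells, read out through a cell viability assay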
Description: SANGER: Inhibition of human A673 cell growth in a cell viability assay.

MKN-28 = experiment: cells; type: functional, cell-based; details: Homo sapiens;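 also: cell viability assay read-out, IC50 reflects suppression of growth of human MKN-28 cells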
Description: SANGER: Inhibition of human MKN28 cell growth in a cell viability assay.

NCI-H1793 = experiment: cells; type: functional, cell-based; details: Homo sapiens;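 also: cell growth inhibition, read out by a cell viability assay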
Description: SANGER: Inhibition of human NCI-H1793 cell growth in a cell viability assay.

BHT-101 = experiment: cells; type: functional, cell-based; details: Homo sapiens
Description: SANGER: Inhibition of human BHT-101 cell growth in a cell viability assay.

NCI-H520 = experiment: cells; type: functional, cell-based; details: Homo sapiens;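 also: growth inhibition of NCI-H520 cells, measured by a cell viability assay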
Description: SANGER: Inhibition of human NCI-H520 cell growth in a cell viability assay.

MC-CAR = experiment: cells; type: functional, cell-based; details: Homo sapiens;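 also: growth inhibition of the human MC-CAR cell line, read out by a cell viability assay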
Description: SANGER: Inhibition of human MC-CAR cell growth in a cell viability assay.

MHH-CALL-2 = experiment: cells; type: functional, cell-based; details: Homo sapiens;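 also: growth inhibition of the cell line, read out in a cell viability assay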
Description: SANGER: Inhibition of human MHH-CALL-2 cell growth in a cell viability assay.

SW837 = experiment: cells; type: functional, cell-based; details: Homo sapiens;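 also: growth inhibition of SW837 cells, determined with a cell viability assay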
Description: SANGER: Inhibition of human SW837 cell growth in a cell viability assay.

NCI-H358 = experiment: cells; type: functional, cell-based; details: Homo sapiens;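 also: growth inhibition of NCI-H358 human cells, read out with a cell viability assay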
Description: SANGER: Inhibition of human NCI-H358 cell growth in a cell viability assay.

HTC-C3 = experiment: cells; type: functional, cell-based; details: Homo sapiens;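 also: inhibition of cell growth, read out with a cell viability assay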
Description: SANGER: Inhibition of human HTC-C3 cell growth in a cell viability assay.

IGROV-1 = experiment: cells; type: functional, cell-based; details: Homo sapiens;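 also: reduction of IGROV-1 cell growth, read out with a viability assay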
Description: SANGER: Inhibition of human IGROV-1 cell growth in a cell viability assay.

NUGC-3 = experiment: cells; type: functional, cell-based; details: Homo sapiens;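 also: growth inhibition of human NUGC-3 cells, read out with a cell viability assay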
Description: SANGER: Inhibition of human NUGC-3 cell growth in a cell viability assay.

NCI-H187 = experiment: cells; type: functional, cell-based; details: Homo sapiens;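 also: growth inhibition of NCI-H187 cells, read out as cell viability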
Description: SANGER: Inhibition of human NCI-H187 cell growth in a cell viability assay.

NCI-H1522 = experiment: cells; type: functional, cell-based; details: Homo sapiens;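 also: growth inhibition of NCI-H1522 cells, read out with a cell viability assay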
Description: SANGER: Inhibition of human NCI-H1522 cell growth in a cell viability assay.

EFM-19 = experiment: cells; type: functional, cell-based; details: Homo sapiens;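 also: growth inhibition of human EFM-19 cells, measured in a cell viability assay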
Description: SANGER: Inhibition of human EFM-19 cell growth in a cell viability assay.

T-24 = experiment: cells; type: functional, cell-based; details: Homo sapiens;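 also: growth inhibition of T-24 cells, read out with a cell viability assay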
Description: SANGER: Inhibition of human T-24 cell growth in a cell viability assay.

SW1573 = experiment: cells; type: functional, cell-based; details: Homo sapiens;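 also: growth inhibition of SW1573 cells, read out with a cell viability assay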
Description: SANGER: Inhibition of human SW1573 cell growth in a cell viability assay.

IST-SL2 = experiment: cells; type: functional, cell-based; details: Homo sapiens;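 also: growth inhibition of human IST-SL2 cells, read out by a cell viability assay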
Description: SANGER: Inhibition of human IST-SL2 cell growth in a cell viability assay.

MRK-nu-1 = experiment: cells; type: functional, cell-based; details: Homo sapiens;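 also: cell viability assay measuring growth suppression of human MRK-nu-1 cells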
Description: SANGER: Inhibition of human MRK-nu-1 cell growth in a cell viability assay.

SAOS-2 = experiment: cells; type: functional, cell-based; details: Homo sapiens;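 also: growth inhibition of human Saos-2 cells determined by a cell viability assay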
Description: SANGER: Inhibition of human Saos-2 cell growth in a cell viability assay.

CAL-12T = experiment: cells; type: functional, cell-based, Homo sapiens; details: Homo sapiens, CAL-12T;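 also: growth inhibition of human CAL-12T cells, read out with a cell viability assay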
Description: SANGER: Inhibition of human CAL-12T cell growth in a cell viability assay.

MONO-MAC-6 = experiment: cells; type: functional, cell-based; details: Homo sapiens;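 also: cell viability assay measuring growth inhibition of human MONO-MAC-6 cells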
Description: SANGER: Inhibition of human MONO-MAC-6 cell growth in a cell viability assay.

NCI-H2030 = experiment: cells; type: functional, cell-based; details: Homo sapiens;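 also: growth inhibition of human NCI-H2030 cells, read out by a cell viability assay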
Description: SANGER: Inhibition of human NCI-H2030 cell growth in a cell viability assay.

KYSE-150 cell line = experiment: cells; type: functional, cell-based; details: Homo sapiens;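 also: growth inhibition of human KYSE-150 cells, read out with a cell viability assay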
Description: SANGER: Inhibition of human KYSE-150 cell growth in a cell viability assay.

5637 = experiment: cells; type: functional, cell-based; details: Homo sapiens
Description: SANGER: Inhibition of human 5637 cell growth in a cell viability assay.

NCI-H522 = experiment: cells; type: functional, cell-based; details: Homo sapiens;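 also: cell viability assay measuring growth inhibition of human NCI-H522 cells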
Description: SANGER: Inhibition of human NCI-H522 cell growth in a cell viability assay.

FTC-133 = experiment: cells; type: functional, cell-based; details: Homo sapiens
ChaGo-K-1 = experiment: cells; type: functional, cell-based; details: Homo sapiens;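 also: growth inhibition of ChaGo-K-1 cells, read out with a cell viability assay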
Description: SANGER: Inhibition of human ChaGo-K-1 cell growth in a cell viability assay.

SBC-5 = experiment: cells; type: functional, cell-based; details: Homo sapiens;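 also: cell viability assay read-out, IC50 is the concentration that inhibits growth of the cells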
Description: SANGER: Inhibition of human SBC-5 cell growth in a cell viability assay.

KP-4 = experiment: cells; type: functional, cell-based; details: Homo sapiens;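 also: human KP-4 cells, with growth inhibition read out through a cell viability assay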
Description: SANGER: Inhibition of human KP-4 cell growth in a cell viability assay.

HMV-2 cell line = experiment: cells; type: functional, cell-based; details: Homo sapiens;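 also: growth inhibition of HMV-II cells, read out with a cell viability assay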
Description: SANGER: Inhibition of human HMV-II cell growth in a cell viability assay.

BCPAP = experiment: cells; type: functional, cell-based; details: Homo sapiens;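 also: growth inhibition of BCPAP cells, read out in a cell viability assay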
Description: SANGER: Inhibition of human BCPAP cell growth in a cell viability assay.

JIYOYE = experiment: cells; type: functional, cell-based; details: Homo sapiens
Description: SANGER: Inhibition of human JiyoyeP-2003 cell growth in a cell viability assay.

SW1463 = experiment: cells; type: functional, cell-based; details: Homo sapiens;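 also: growth inhibition of SW1463 cells, determined with a cell viability assay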
Description: SANGER: Inhibition of human SW1463 cell growth in a cell viability assay.

NCI-H1437 = experiment: cells; type: functional, cell-based; details: Homo sapiens;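 also: growth inhibition of human NCI-H1437 cells, read out by a cell viability assay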
Description: SANGER: Inhibition of human NCI-H1437 cell growth in a cell viability assay.

PC-3 = experiment: cells; type: functional, cell-based; details: Homo sapiens;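 also: cell viability assay measuring growth inhibition of PC-3 cells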
Description: SANGER: Inhibition of human PC-3 cell growth in a cell viability assay.

G-401 = experiment: cells; type: functional, cell-based; details: Homo sapiens
Description: SANGER: Inhibition of human G-401 cell growth in a cell viability assay.

NCI-H1755 = experiment: cells; type: functional, cell-based; details: Homo sapiens;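 also: cell viability readout used to measure growth inhibition of NCI-H1755 cells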
Description: SANGER: Inhibition of human NCI-H1755 cell growth in a cell viability assay.

TE-15 = experiment: cells; type: functional, cell-based; details: Homo sapiens;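 also: cell viability readout of growth inhibition in TE-15 cells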
Description: SANGER: Inhibition of human TE-15 cell growth in a cell viability assay.

SR = experiment: cells; type: functional, cell-based; details: Homo sapiens
Description: SANGER: Inhibition of human SR cell growth in a cell viability assay.

YT = experiment: cells; type: functional, cell-based; details: Homo sapiens
Description: SANGER: Inhibition of human YT cell growth in a cell viability assay.

Detroit 562 = experiment: cells; type: functional, cell-based; details: Homo sapiens;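 also: growth inhibition of human Detroit 562 cells, read out by a cell viability assay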
Description: SANGER: Inhibition of human Detroit562 cell growth in a cell viability assay.

KYSE-180 = experiment: cells; type: functional, cell-based; details: Homo sapiens;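 also: growth inhibition of KYSE-180 cells, read out with a cell viability assay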
Description: SANGER: Inhibition of human KYSE-180 cell growth in a cell viability assay.

SCC-25 = experiment: cells; type: functional, cell-based; details: Homo sapiens;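 also: growth inhibition of SCC-25 cells, measured with a cell viability assay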
Description: SANGER: Inhibition of human SCC-25 cell growth in a cell viability assay.

AGS = experiment: cells; type: functional, cell-based; details: Homo sapiens;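 also: growth inhibition of AGS cells, determined with a cell viability assay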
Description: SANGER: Inhibition of human AGS cell growth in a cell viability assay.

SKG-IIIa = experiment: cells; type: functional, cell-based; details: Homo sapiens;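 also: cell growth inhibition, read out with a cell viability assay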
Description: SANGER: Inhibition of human SKG-IIIa cell growth in a cell viability assay.

NCCIT = experiment: SANGER: Inhibition of human NCCIT cell growth in a cell viability assay.; type: functional, cell-based
MFE-280 = experiment: cells; type: functional, cell-based; details: Homo sapiens;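 also: growth inhibition of MFE-280 cells, determined with a cell viability readout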
Description: SANGER: Inhibition of human MFE-280 cell growth in a cell viability assay.

NCI-H1417 = experiment: cells; type: functional, cell-based; details: Homo sapiens
Description: SANGER: Inhibition of human NCI-H1417 cell growth in a cell viability assay.

JEG-3 = experiment: cells; type: functional, cell-based; details: Homo sapiens
Description: SANGER: Inhibition of human JEG-3 cell growth in a cell viability assay.

For `C/C=C(/C)C(=O)O[C@H]1C(C)=C2[C@H]([C@@H]1OC(=O)CCCCCCC)[C@@](C)(OC(C)=O)C[C@H](OC(=O)CCC)[C@@]1(O)[C@H]2OC(=O)[C@@]1(C)O` [THAPSIGARGIN], the IC50 (MHH-ES-1) was 4.18 nM, the IC50 (HOS) was 1.96 nM and the IC50 (GAMG) was 8.86 nM. The IC50 (HCC1937) was 0.927 nM, the IC50 (VM-CUB-1) was 22 nM and the IC50 (HN) was over 512 nM. The IC50 (NCI-H2081) was over 512 nM, the IC50 (Raji) was 38.4 nM and the IC50 (SW756) was 12.7 nM. It also gave an IC50 (CAL-148) of over 512 nM, an IC50 (NCI-H719) of over 512 nM and an IC50 (MDA-MB-453) of over 512 nM. For the same compound, the IC50 (EB2) was 10.4 nM, the IC50 (NCI-H727) was 8.36 nM and the IC50 (A673) was 7.24 nM. It also gave an IC50 (MKN-28) of 9.79 nM, an IC50 (NCI-H1793) of over 512 nM and an IC50 (BHT-101) of 88.1 nM. For the same compound, the IC50 (NCI-H520) was under 2 nM, the IC50 (MC-CAR) was 24.4 nM and the IC50 (MHH-CALL-2) was 468 nM. It also gave an IC50 (SW837) of 1.66 nM, an IC50 (NCI-H358) of under 2 nM and an IC50 (HTC-C3) of 21.7 nM. For the same compound, the IC50 (IGROV-1) was under 2 nM, the IC50 (NUGC-3) was under 2 nM and the IC50 (NCI-H187) was 53.2 nM. The IC50 (NCI-H1522) was over 512 nM, the IC50 (EFM-19) was over 512 nM and the IC50 (T-24) was 12.3 nM. The IC50 (SW1573) was 31.1 nM, the IC50 (IST-SL2) was 6.76 nM and the IC50 (MRK-nu-1) was 23.2 nM. For the same compound, the IC50 (SAOS-2) was 14.7 nM, the IC50 (CAL-12T) was under 2 nM and the IC50 (MONO-MAC-6) was 3.8 nM. It also gave an IC50 (NCI-H2030) of 4.05 nM, an IC50 (KYSE-150 cell line) of 22.2 nM and an IC50 5637 of 11.4 nM. It also gave an IC50 (NCI-H522) of 5.43 nM, an IC50 (FTC-133) of over 512 nM and an IC50 (ChaGo-K-1) of 3.29 nM. For the same compound, the IC50 (SBC-5) was 8.08 nM, the IC50 (KP-4) was 2.64 nM and the IC50 (HMV-2 cell line) was 6.87 nM. The IC50 (BCPAP) was under 2 nM, the IC50 (JIYOYE) was 7.21 nM and the IC50 (SW1463) was over 512 nM. It also gave an IC50 (NCI-H1437) of 2.47 nM, an IC50 (PC-3) of 8 nM and an IC50 (G-401) of 25.1 nM. The IC50 (NCI-H1755) was 310 nM, the IC50 (TE-15) was 4.91 nM and the IC50 (SR) was over 512 nM. For the same compound, the IC50 (YT) was 13.1 nM, the IC50 (Detroit 562) was 2.52 nM and the IC50 (KYSE-180) was 1.16 nM. It also gave an IC50 (SCC-25) of 9.71 nM, an IC50 (AGS) of 8.78 nM and an IC50 (SKG-IIIa) of over 512 nM. The IC50 (NCCIT) was under 2 nM, the IC50 (MFE-280) was 36.6 nM and the IC50 (NCI-H1417) was over 512 nM. The IC50 (JEG-3) was 9.78 nM.
